From PubChem BioAssay (NCI) come the findings set out here.

Common to all, as to assay: growth of human tumour cells (NCI), 48 h
Experiment [1] relates to SK-MEL-2 melanoma.
In experiment [2] the test system is IGROV1 ovarian.
Experiment [3] relates to NCI/ADR-RES ovarian.
For experiment [4], the system named is KM12 colon.
The subject of experiment [5] is PC-3 prostate.
Experiment [6] deals with SR leukemia.
In experiment [7] the test system is LOX IMVI melanoma.
Experiment [8] relates to HCC-2998 colon.
The test system of experiment [9] is DU-145 prostate.
In experiment [10] the test system is TK-10 renal.
In experiment [11] the test system is CCRF-CEM leukemia.
In experiment [12] the test system is HOP-92 NSCLC.
For experiment [13], the system named is NCI-H522 lung.
Experiment [14] concerns MDA-MB-435.
Experiment [15] deals with MOLT-4 leukemia.
The test system of experiment [16] is SK-MEL-28 melanoma.

Structures are written as SMILES.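 In this assay, cells in 96-well plates receive the compound at five concentrations for 48 hours. Endpoints are linearly interpolated between the surrounding concentrations. The concentration for full growth arrest is given as TGI.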

For `CCNc1cc2c3c(c1)CCN3CCC2`, the TGI in experiment [1], in experiment [2], in experiment [3], in [4], in experiment [5] and in experiment [6] was more than 10 µM throughout. For the same molecule, the TGI in [7], in [8], in experiment [9], in experiment [10], in [11] and in experiment [12] was more than 10 µM in each case. Moreover, the TGI in experiment [13], in [14], in [15] and in [16] was more than 10 µM each time.
Take `O=c1[nH]nc(Cc2ccc(Cl)cc2)n1/N=C/c1ccc([N+](=O)[O-])o1`: the TGI in experiment [1] was 12.4 µM; in [2], 11.2 µM; in experiment [3] it was more than 35.5 µM; in experiment [4], 6.59 µM; in [5], more than 75.1 µM; in experiment [6] it was 7.55 µM. The TGI in experiment [7] was more than 24.8 µM; in [8], 4.82 µM; in [9] it was more than 36.7 µM; in [10], 18.5 µM; in [11] it was more than 37 µM; in experiment [12], more than 46.8 µM. Besides, the TGI in experiment [13] was 4.18 µM; in [14] it was 11.9 µM; in experiment [15], more than 26.6 µM; in experiment [16], more than 21.9 µM.
For `O=C(Nc1nn[nH]n1)c1nc(-c2ccccc2)cc(=O)[nH]1`, the TGI in [1], in [2], in [3], in [4], in [5] and in experiment [6] was more than 100 µM in each case. Besides, the TGI in [7], in experiment [8], in experiment [9], in [10], in experiment [11] and in experiment [12] was more than 100 µM in each case. Moreover, the TGI in [13], in experiment [14], in experiment [15] and in experiment [16] was more than 100 µM throughout.
In the case of `COc1ccccc1NC(=O)CC(=O)NN`, the TGI in [1], in [2], in experiment [3], in [4], in [5] and in experiment [6] was more than 100 µM each time. The TGI in experiment [7], in [8], in [9], in experiment [10], in [11] and in experiment [12] was more than 100 µM each time. For the same molecule, the TGI in experiment [13], in experiment [14], in experiment [15] and in experiment [16] was more than 100 µM each time.
With `O=C1NC(N2CCOCC2)=N/C1=C\c1ccc(O)cc1`, the TGI in [1], in [2], in experiment [3], in experiment [4], in experiment [5] and in experiment [6] was more than 100 µM each time. The TGI in experiment [7], in experiment [8], in experiment [9], in experiment [10], in experiment [11] and in experiment [12] was more than 100 µM each time. In addition, the TGI in [13], in experiment [14], in experiment [15] and in experiment [16] was more than 100 µM each time.
Consider `CC(C)(C)OC(=O)c1ccc(NCC2=C(Br)C(=O)C=CC2=O)cc1`, for which the TGI in [1] is more than 71.1 µM; in experiment [2], more than 66.9 µM; in experiment [3], 62.9 µM; in [4], more than 100 µM; in [5], more than 100 µM; in experiment [6] it was 79.7 µM. The TGI in experiment [7] is 31.4 µM; in [8] it was 48 µM; in [9], more than 94.3 µM; in [10], 48.2 µM; in experiment [11] it was more than 24.9 µM; in experiment [12], 28.4 µM. For the same molecule, the TGI in [13] was found to be 13 µM; in experiment [14], 41.3 µM; in [15], 45.7 µM; in [16], 41.2 µM.
As for `CC(=O)OCC1OC(n2c(C)c(C)c(C)c(C#N)c2=S)C(OC(C)=O)C(OC(C)=O)C1OC(C)=O` (stereo not given), the TGI was 78.2 µM in [1]; more than 100 µM in experiment [2]; more than 100 µM in experiment [3]; more than 100 µM in experiment [4]; more than 100 µM in [5]; more than 100 µM in [6]. Besides, the TGI in [7], in experiment [8], in experiment [9], in experiment [10], in experiment [11] and in experiment [12] was more than 100 µM in each case. Moreover, the TGI is 69.1 µM in experiment [13], more than 100 µM in [14], more than 100 µM in [15] and more than 100 µM in experiment [16].
With `CCOC(=O)Nc1ccc(S(=O)(=O)Nn2cnnc2)cc1`, the TGI in experiment [1], in experiment [2], in experiment [3], in [4], in experiment [5] and in [6] was more than 100 µM in each case. Also, the TGI in experiment [7] was more than 100 µM; in [8], 74.5 µM; in experiment [9] it was more than 100 µM; in experiment [10] it was more than 100 µM; in [11] it was more than 100 µM; in [12], more than 100 µM. Further, the TGI was more than 100 µM in experiment [13], 49.7 µM in experiment [14], more than 100 µM in experiment [15] and more than 100 µM in experiment [16].
As to `Cc1cc(S(=O)(=O)/N=C(/NN)Nc2ccc(Cl)cc2)c(S)cc1Cl`, the TGI was 76.9 µM in experiment [1]; 39.7 µM in [2]; 23.4 µM in experiment [3]; 19.3 µM in experiment [4]; more than 100 µM in experiment [5]; more than 100 µM in experiment [6]. The TGI is 30.5 µM in experiment [7]; 23.8 µM in [8]; 17.2 µM in experiment [9]; 65.3 µM in [10]; 94 µM in experiment [11]; 67.9 µM in experiment [12]. Also, the TGI in [13] amounted to 42.9 µM; in experiment [14], 25.6 µM; in experiment [15], 58.9 µM; in [16], 60.3 µM.
In the case of `CC1CCC2(OC1)OC1C(O)C3C4CCC5CC(OC6OC(CO)C(OC7OC(CO)C(O)C(OC8OCC(O)C(O)C8O)C7OC7OC(CO)C(O)C(OC8OC(CO)C(O)C(O)C8O)C7O)C(O)C6O)C(O)CC5(C)C4CCC3(C)C1C2C` (stereo not given), the TGI amounted to 17.8 µM in experiment [1]; 6.7 µM in experiment [2]; 13.6 µM in experiment [3]; 4.77 µM in experiment [4]; 10.3 µM in [5]; 18.8 µM in experiment [6]. Also, the TGI is 12.1 µM in experiment [7]; 4.69 µM in [8]; 4.63 µM in experiment [9]; 6.1 µM in experiment [10]; 10.5 µM in [11]; 26.5 µM in experiment [12]. The TGI in experiment [13] was 3.79 µM; in experiment [14] it was 30 µM; in experiment [15] it was 15.1 µM; in [16], more than 100 µM.
